Here are results for ten molecules from publication PMC12136037, “Type II kinase inhibitors that target Parkinson’s disease–associated LRRK2” (Science Advances, 2025).

Assay in all cases: DSF 100 kinase selectivity screen;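 further: compound tested at 20 µM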
What all share (format): binding

Test [1] has as its target T1, ~100 representative kinases (Homo sapiens, UniProt O15264).
T1 construct: Recombinant protein kinase domains with a concentration of 2 μM
T1 sequence (O15264 1-365): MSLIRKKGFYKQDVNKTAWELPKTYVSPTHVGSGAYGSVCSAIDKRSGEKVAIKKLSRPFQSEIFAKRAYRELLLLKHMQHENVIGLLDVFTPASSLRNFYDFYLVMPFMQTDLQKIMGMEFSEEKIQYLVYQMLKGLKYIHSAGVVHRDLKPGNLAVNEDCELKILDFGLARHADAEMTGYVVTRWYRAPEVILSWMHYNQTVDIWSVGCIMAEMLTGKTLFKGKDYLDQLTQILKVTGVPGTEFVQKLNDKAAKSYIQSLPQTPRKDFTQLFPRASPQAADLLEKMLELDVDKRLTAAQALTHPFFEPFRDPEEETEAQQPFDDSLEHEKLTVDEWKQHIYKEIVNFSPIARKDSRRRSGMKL
The following applies: protein MAPK13; average of three replicates. Put shortly: (§1)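 Each kinase domain, at 2 μM, is mixed with 20 μM test compound and SYPRO Orange in Hepes (20 mM, pH 7.5) with 500 mM NaCl. Temperature is then raised at 3°C/min and fluorescence-monitored unfolding yields the melting temperature change, ΔTm in degrees Celsius.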

Test [2] concerns the target T2, ~100 representative kinases (Homo sapiens, UniProt P45983).
T2 construct: Recombinant protein kinase domains with a concentration of 2 μM
The following applies: protein MAPK8; average of three replicates. Put shortly: as §1

Test [3] addresses T3, ~100 representative kinases (Homo sapiens, UniProt Q13153).
T3 construct: Recombinant protein kinase domains with a concentration of 2 μM
The following applies: protein PAK1; average of three replicates. In outline: as §1

Test [4] concerns the target T4, ~100 representative kinases (Homo sapiens, UniProt Q13188).
T4 construct: Recombinant protein kinase domains with a concentration of 2 μM
T4 sequence (Q13188 1-491): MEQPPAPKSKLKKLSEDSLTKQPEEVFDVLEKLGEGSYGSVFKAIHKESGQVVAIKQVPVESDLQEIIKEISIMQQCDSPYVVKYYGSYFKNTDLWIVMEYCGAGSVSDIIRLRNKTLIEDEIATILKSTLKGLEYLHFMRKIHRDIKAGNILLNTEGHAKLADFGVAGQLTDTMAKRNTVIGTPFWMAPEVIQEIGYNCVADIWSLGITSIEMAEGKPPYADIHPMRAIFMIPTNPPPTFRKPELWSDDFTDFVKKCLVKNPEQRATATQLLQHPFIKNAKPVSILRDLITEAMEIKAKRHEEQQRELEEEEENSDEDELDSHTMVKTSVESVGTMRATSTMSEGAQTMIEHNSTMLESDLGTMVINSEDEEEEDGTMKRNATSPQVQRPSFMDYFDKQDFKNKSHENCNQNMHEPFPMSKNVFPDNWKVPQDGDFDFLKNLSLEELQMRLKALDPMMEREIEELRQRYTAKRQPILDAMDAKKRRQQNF
The conditions noted are these: Protein STK3; DSF; average of three replicates. Put shortly: as §1

For test [5], the target named is T5, ~100 representative kinases (Homo sapiens, UniProt Q16539).
T5 construct: Recombinant protein kinase domains with a concentration of 2 μM
T5 sequence (Q16539 whole entry, the tested form may be a part): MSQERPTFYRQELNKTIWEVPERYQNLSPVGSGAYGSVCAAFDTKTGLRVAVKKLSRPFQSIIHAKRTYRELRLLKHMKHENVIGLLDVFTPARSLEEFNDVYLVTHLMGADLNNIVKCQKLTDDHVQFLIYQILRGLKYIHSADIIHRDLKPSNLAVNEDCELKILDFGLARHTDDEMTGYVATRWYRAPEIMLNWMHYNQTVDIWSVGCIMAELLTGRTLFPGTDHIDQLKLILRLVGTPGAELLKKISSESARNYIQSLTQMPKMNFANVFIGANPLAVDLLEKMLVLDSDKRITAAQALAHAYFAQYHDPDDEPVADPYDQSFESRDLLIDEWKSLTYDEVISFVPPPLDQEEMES
The conditions noted are these: protein MAPK14; average of three replicates. In outline: as §1

Test [6] concerns the target T6, ~100 representative kinases (Homo sapiens, UniProt Q8IU85).
T6 construct: Recombinant protein kinase domains with a concentration of 2 μM
The following applies: Protein CAMK1D; average of three replicates. In outline:
as §1

In test [7] the target is T7, ~100 representative kinases (Homo sapiens, UniProt Q96PY6).
T7 construct: Recombinant protein kinase domains with a concentration of 2 μM
T7 sequence (Q96PY6 1-1258): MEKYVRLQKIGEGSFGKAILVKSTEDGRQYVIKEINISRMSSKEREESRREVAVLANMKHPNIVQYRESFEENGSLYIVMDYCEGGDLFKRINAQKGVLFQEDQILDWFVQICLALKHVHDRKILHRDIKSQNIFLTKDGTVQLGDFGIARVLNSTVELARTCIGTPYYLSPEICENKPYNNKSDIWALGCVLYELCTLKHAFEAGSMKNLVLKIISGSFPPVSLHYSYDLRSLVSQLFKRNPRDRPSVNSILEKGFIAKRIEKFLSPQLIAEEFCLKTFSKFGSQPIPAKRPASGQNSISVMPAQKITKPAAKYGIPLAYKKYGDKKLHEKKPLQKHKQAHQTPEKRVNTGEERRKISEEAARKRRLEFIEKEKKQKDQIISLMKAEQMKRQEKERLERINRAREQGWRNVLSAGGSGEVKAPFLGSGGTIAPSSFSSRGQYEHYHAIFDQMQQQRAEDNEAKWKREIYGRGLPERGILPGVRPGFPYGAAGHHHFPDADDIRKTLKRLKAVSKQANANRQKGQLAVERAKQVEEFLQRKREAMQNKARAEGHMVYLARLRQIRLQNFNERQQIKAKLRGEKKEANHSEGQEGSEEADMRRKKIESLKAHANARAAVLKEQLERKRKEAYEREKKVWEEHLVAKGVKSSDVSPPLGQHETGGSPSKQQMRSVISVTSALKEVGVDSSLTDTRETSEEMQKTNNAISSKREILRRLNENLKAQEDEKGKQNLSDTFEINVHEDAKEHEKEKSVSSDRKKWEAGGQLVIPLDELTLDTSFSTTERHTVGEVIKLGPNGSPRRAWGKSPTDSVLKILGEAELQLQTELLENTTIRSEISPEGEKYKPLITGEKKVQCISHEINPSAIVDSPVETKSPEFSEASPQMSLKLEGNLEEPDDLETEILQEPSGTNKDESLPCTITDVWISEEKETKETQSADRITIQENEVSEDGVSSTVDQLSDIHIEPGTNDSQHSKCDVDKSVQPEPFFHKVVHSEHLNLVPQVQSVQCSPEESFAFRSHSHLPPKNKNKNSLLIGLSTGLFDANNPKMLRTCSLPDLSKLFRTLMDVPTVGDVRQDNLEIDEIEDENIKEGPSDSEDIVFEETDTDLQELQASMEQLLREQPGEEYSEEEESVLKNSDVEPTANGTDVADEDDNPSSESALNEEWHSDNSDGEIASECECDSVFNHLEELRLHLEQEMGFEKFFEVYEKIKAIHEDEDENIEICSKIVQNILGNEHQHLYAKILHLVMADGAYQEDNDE
The conditions noted are these: protein NEK1; average of three replicates. Put shortly: as §1

Test [8] deals with T8, ~100 representative kinases (Homo sapiens, UniProt Q9H4A3).
T8 construct: Recombinant protein kinase domains with a concentration of 2 μM
T8 sequence (Q9H4A3 whole entry, the tested form may be a part): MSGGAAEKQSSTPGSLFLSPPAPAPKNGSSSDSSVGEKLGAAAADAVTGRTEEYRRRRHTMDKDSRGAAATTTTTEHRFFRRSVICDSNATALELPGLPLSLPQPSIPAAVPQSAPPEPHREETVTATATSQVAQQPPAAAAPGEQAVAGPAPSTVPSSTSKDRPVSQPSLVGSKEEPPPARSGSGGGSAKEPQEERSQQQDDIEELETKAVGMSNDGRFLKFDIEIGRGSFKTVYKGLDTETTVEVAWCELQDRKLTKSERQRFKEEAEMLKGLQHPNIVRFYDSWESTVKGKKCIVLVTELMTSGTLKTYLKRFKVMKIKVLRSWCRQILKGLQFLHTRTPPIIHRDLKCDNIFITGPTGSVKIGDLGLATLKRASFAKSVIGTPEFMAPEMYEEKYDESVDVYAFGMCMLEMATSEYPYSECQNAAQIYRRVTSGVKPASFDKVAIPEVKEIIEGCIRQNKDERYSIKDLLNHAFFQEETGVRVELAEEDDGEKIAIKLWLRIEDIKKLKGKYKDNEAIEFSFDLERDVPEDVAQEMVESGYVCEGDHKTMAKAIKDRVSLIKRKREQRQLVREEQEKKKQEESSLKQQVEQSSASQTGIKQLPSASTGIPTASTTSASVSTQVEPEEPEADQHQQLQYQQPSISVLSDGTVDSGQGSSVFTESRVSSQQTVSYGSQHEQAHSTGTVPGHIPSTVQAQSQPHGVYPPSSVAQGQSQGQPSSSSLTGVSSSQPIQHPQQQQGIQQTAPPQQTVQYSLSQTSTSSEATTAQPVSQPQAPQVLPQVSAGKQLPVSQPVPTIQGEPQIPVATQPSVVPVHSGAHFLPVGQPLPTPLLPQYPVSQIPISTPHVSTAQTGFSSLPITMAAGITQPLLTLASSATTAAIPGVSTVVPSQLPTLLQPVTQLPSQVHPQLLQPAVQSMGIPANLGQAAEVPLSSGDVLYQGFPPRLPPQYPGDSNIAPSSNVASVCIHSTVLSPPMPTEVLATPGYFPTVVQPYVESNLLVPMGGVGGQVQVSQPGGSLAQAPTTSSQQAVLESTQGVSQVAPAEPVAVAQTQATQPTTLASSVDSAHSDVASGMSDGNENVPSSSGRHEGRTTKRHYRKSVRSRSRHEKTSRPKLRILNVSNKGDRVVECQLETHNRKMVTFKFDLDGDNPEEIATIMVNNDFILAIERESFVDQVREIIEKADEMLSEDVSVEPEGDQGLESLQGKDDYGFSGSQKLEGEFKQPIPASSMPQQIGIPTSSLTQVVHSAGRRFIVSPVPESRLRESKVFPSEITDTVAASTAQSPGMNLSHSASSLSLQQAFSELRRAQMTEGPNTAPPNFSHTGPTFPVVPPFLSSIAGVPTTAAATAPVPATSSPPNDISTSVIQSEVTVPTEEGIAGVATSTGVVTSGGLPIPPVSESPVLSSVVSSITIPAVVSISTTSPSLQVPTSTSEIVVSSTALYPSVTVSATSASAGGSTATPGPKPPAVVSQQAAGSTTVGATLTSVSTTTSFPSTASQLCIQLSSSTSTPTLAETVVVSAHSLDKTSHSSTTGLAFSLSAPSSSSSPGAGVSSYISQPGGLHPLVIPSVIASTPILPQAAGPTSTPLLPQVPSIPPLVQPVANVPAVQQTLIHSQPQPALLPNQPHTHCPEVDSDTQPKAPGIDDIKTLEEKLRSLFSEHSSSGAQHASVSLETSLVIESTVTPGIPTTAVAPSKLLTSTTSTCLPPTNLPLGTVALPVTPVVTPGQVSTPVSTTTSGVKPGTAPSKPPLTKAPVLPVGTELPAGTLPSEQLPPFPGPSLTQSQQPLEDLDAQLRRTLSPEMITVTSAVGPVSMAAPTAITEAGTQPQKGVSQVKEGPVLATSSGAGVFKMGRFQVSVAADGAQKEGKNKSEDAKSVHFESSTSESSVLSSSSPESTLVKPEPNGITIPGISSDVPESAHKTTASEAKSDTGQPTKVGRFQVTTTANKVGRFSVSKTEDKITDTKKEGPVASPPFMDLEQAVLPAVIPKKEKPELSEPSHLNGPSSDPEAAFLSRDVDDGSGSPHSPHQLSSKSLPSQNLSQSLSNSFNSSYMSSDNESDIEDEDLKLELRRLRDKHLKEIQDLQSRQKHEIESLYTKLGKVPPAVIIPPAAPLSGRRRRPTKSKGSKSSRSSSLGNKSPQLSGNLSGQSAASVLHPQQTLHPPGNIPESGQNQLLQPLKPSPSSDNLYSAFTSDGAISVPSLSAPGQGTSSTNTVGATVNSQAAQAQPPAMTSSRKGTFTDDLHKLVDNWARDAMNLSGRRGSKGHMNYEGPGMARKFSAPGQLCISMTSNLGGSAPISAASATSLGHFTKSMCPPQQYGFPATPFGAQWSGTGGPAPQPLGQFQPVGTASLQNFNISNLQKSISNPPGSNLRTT
The conditions noted are these: Protein WNK1; DSF; average of three replicates. In outline: as §1

In test [9] the target is T9, ~100 representative kinases (Homo sapiens, UniProt Q9P289).
T9 construct: Recombinant protein kinase domains with a concentration of 2 μM
T9 sequence (Q9P289 whole entry, the tested form may be a part): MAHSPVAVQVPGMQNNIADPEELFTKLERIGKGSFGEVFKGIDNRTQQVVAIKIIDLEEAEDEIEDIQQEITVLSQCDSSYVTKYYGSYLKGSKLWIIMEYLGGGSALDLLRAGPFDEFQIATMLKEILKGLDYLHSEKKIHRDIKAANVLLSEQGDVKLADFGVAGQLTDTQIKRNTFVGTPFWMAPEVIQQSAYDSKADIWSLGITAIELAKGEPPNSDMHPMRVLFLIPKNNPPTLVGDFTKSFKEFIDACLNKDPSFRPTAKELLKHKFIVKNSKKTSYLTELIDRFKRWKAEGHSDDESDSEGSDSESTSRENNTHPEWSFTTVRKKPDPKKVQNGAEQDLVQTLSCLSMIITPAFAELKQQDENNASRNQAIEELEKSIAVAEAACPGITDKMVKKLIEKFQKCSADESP
The conditions noted are these: protein MST4; average of three replicates. In outline:
as §1

Test [10] has as its target T10, ~100 representative kinases (Homo sapiens, UniProt Q9UEW8).
T10 construct: Recombinant protein kinase domains with a concentration of 2 μM
The conditions noted are these: Protein STK39; DSF; average of three replicates. Put shortly: as §1

T2 sequence (P45983 whole entry, the tested form may be a part): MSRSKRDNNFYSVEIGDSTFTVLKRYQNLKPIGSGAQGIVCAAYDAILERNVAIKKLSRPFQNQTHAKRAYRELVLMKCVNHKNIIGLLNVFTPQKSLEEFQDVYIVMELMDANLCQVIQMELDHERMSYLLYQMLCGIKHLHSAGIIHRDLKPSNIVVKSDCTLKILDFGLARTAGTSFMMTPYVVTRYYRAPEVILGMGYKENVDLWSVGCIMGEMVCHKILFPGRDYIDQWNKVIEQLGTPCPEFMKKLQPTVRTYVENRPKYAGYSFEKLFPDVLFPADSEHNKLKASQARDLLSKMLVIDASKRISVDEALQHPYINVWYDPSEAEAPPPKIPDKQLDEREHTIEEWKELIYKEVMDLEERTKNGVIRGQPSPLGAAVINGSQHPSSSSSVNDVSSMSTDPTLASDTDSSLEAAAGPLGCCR
T3 sequence (Q13153 whole entry, the tested form may be a part): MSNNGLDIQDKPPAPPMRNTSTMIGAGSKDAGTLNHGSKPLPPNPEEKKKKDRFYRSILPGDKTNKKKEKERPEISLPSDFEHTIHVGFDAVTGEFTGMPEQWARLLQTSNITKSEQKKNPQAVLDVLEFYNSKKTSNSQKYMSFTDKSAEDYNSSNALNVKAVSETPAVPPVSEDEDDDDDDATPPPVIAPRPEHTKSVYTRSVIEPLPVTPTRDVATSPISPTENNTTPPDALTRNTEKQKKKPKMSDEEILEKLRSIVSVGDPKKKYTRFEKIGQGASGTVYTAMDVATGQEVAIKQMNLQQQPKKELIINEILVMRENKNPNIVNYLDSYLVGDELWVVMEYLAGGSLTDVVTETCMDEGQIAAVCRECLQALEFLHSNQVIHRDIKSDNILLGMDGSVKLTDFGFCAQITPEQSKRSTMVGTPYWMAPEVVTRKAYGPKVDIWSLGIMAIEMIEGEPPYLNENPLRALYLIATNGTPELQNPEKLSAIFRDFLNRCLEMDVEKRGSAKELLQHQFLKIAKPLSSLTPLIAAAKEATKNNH
T6 sequence (Q8IU85 whole entry, the tested form may be a part): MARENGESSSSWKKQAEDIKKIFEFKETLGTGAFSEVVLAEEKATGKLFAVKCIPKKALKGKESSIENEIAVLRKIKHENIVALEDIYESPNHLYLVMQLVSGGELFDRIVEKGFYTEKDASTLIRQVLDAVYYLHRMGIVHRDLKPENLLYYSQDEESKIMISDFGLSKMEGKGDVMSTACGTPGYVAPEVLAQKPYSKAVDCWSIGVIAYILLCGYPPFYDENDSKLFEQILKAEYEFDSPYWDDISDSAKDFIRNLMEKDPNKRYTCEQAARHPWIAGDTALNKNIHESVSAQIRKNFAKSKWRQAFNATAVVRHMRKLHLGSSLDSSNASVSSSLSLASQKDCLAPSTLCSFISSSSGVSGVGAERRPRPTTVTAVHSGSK

In the case of `O=C(Nc1cccc(-c2c[nH]c3ncnc(N4CCOCC4)c23)c1)C1(C(=O)Nc2cc(Br)c(F)cc2F)CC1` [Compound 25], the dTm in test [1] came to 1.39 K; in test [2], 0.77 K; in [3], 0.67 K; in test [4], 4.96 K; in test [5], 2.03 K; in [6] it was 3.75 K. The dTm in test [7] is -6.30 K; in [8], 1.20 K; in test [9], 1.80 K; in [10] it was -0.03 K.
With `O=C(Nc1cccc(-c2c[nH]c3ncnc(N4CCOCC4)c23)c1)C1(C(=O)Nc2ccc(F)c(Br)c2F)CC1` [Compound 26], the dTm is 4.55 K in [1]; 2.06 K in [2]; 2.69 K in [3]; 5.86 K in [4]; 2.01 K in [5]; 2.09 K in test [6]. Further, the dTm in [7] is recorded as -0.27 K; in test [8], 1.13 K; in test [9] it was 1.39 K; in [10] it was 0.00 K.
As to `O=C(Nc1cc(F)cc(Br)c1)C1(C(=O)Nc2cccc(-c3c[nH]c4ncnc(N5CCOCC5)c34)c2)CC1` [Compound 27], the dTm in [1] was found to be 4.18 K; in [2] it was 1.19 K; in test [3] it was 3.33 K; in [4], 2.54 K; in [5], 1.86 K; in test [6], 1.52 K. Besides, the dTm in test [7] was -1.82 K; in test [8], 0.64 K; in [9], 3.14 K; in test [10], 0.00 K.
As for `CC(C)(C)c1cc(NC(=O)Nc2cccc(-c3c[nH]c4ncnc(N5CCOCC5)c34)c2)n(-c2ccc3ncccc3c2)n1` [Compound 28], the dTm stood at 16.99 K in [1]; 3.58 K in test [2]; 5.08 K in test [3]; 10.40 K in test [4]; 3.86 K in [5]; 2.13 K in test [6]. The dTm turned out to be 0.13 K in [7], 1.32 K in [8], 6.29 K in test [9] and 7.55 K in [10].
On to `Cc1ccc(-n2nc(C(C)(C)C)cc2NC(=O)Nc2cccc(-c3c[nH]c4ncnc(N5CCOCC5)c34)c2)cc1` [Compound 29], for which the dTm in [1] is 18.71 K; in test [2], 4.13 K; in [3] it was 3.58 K; in test [4] it was 10.79 K; in test [5], 5.90 K; in test [6], 1.72 K. In addition, the dTm in [7] is recorded as -1.22 K; in [8], 1.43 K; in test [9], 3.56 K; in test [10] it was 6.45 K.
For `Cc1ccc(-n2nc(C(C)(C)C)cc2NC(=O)Nc2cccc(-c3c[nH]c4nc(Cl)nc(N5CCOCC5)c34)c2)cc1` [Compound 30], the dTm in test [1] was 9.71 K; in test [2], 1.42 K; in test [3], 0.76 K; in test [4], 5.14 K; in [5] it was 2.81 K; in [6], -0.23 K. The dTm in test [7] is given as -0.84 K; in test [8], -0.58 K; in test [9], -1.63 K; in test [10] it was 1.34 K.
`CC(=O)N1CCN(c2nc(Cl)nc3[nH]cc(-c4cccc(NC(=O)Nc5cc(C(C)(C)C)nn5-c5ccc(C)cc5)c4)c23)CC1` [Compound 31]: the dTm was 11.86 K in test [1]; 0.84 K in test [2]; 0.00835 K in test [3]; 6.29 K in [4]; 3.92 K in test [5]; -0.11 K in [6]. Also, the dTm in test [7] was -1.20 K; in test [8] it was 0.46 K; in test [9], -1.15 K; in test [10], 1.08 K.
As for `CCSc1nc(NC)c2c(-c3cccc(NC(=O)Nc4cc(C(C)(C)C)nn4-c4ccc(C)cc4)c3)c[nH]c2n1` [Compound 32], the dTm in [1] was 9.18 K; in [2], 4.04 K; in [3] it was -0.13 K; in test [4], 0.53 K; in test [5], 5.12 K; in test [6] it was 0.45 K. The dTm in test [7] was -1.34 K; in test [8], 0.83 K; in test [9] it was -2.75 K; in test [10], 0.77 K.
`COc1cc(C(=O)N2CCOCC2)c(F)cc1Nc1nc(N(C)C)c2c(Cl)c[nH]c2n1` [Compound 36]: the dTm is on record as 0.85 K in test [1]; 5.54 K in [2]; -1.33 K in test [3]; -0.64 K in [4]; -0.75 K in test [5]; 1.95 K in test [6]. Also, the dTm in test [7] was 0.22 K; in [8] it was 0.40 K; in test [9], -3.37 K; in test [10], 2.35 K.
In the case of `COc1cc(S(C)(=O)=O)ccc1Nc1nc(N(C)C)c2c(Cl)c[nH]c2n1` [Compound 37], the dTm in test [1] is 0.37 K; in test [2] it was 3.54 K; in test [3], -0.88 K; in test [4], -0.72 K; in [5], -0.35 K; in [6] it was 0.49 K. In addition, the dTm in test [7] is 0.73 K; in [8], 0.04 K; in [9], -1.65 K; in test [10] it was 3.58 K.
